This is an account of results in patent publication US10940139B2, “Compounds that interact with the Ras superfamily for the treatment of cancers, inflammatory diseases, rasopathies, and fibrotic disease” (Shy Therapeutics LLC, priority 2017, dated 2021).

Structures are written as SMILES.

KRas G12D/Q61H double mutant, sequence (P01116-2 other isoform, or with tags, fused parts or gaps G12D/Q61H): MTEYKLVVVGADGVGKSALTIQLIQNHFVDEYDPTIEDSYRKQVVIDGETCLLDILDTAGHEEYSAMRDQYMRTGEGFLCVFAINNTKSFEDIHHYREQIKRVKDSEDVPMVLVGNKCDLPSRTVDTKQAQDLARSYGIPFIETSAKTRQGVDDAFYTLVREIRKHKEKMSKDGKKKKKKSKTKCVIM

The target in the first test is KRas G12D/Q61H double mutant (Homo sapiens (Human), UniProt P01116, G12D/Q61H). The experiment in a line: Ras GTP binding domain inhibition assay (labeled GTP). The following applies: 20 μM compound; KRas G12D/Q61H double mutant; read-out: % Inhibition at 20 μM of K-Ras mutant and wild-type protein, KRas G12D Q61H. The method in brief:
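Fluorescence read-out of Cy3-/Cy5-GTP remaining bound to nickel-immobilized His-KRas after washes. Protein was coated overnight at 4° C, then exposed to compound for 3 h at room temperature before a 45 min labeled-GTP incubation.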
As to `COc1cccc(CN(C)S(=O)(=O)N(C)Cc2ccc(F)cc2)c1`, the inhibition at 20 µM was 25 to 50%.
Still for that read-out and setting: the result for `OCCCCCSc1n[nH]c(-c2ccccn2)n1` reads 51 to 75%; that for `c1ccc(Cc2nc(CN(CCn3cccn3)Cc3csc(Cc4ccccc4)n3)cs2)cc1`, 1 to 25%; that for `CC(C)=CC1C(C(=O)NCc2ccc(OCC(F)(F)F)nc2)C1(C)C` (stereo not drawn), 25 to 50%.
Still for that read-out and setting: the result for `COC(=O)c1cc(Cn2nc(C(=O)OC)c(Br)c2C2CC2)c(C)s1` reads 25 to 50%; that for `CCOc1ccccc1CN(CCCn1ccnc1)C(=O)Nc1ccc(OC(F)F)c(Cl)c1`, 25 to 50%.
Still for that read-out and setting: the result for `CC(C)c1ccc(CSc2nnc(SCCNC(=O)C3CCCC3)s2)cc1` reads 51 to 75%; that for `CCN(CC(=O)Nc1ccccc1OC)Cc1coc(-c2ccc(C)cc2C)n1`, 25 to 50%.
In the case of `CC(O)(c1ccc(OCc2csc(Cc3ccccc3)n2)cc1)C(F)(F)F` (stereo not drawn), the inhibition at 20 µM fell in the range of 25 to 50%.
Same read-out and setting: the result for `CCc1cc(N2CC(Cc3cc(OC)cc(OC)c3)C2)nc(-c2ccncc2)n1` reads 1 to 25%.
On the same count and under the same terms, the result for `COc1ccc(Cl)cc1CN(c1ccccc1F)S(=O)(=O)C(C)C` reads 25 to 50%.
Still for that read-out and setting: the result for `CN(Cc1ccc(S(=O)(=O)N(C)C)o1)c1ccccc1-c1ccccc1` reads 1 to 25%; that for `Cc1cc(C)c(C)c(S(=O)(=O)N2CCN(C(C)C(=O)NCc3ccc4c(c3)OCO4)CC2)c1C` (stereo not drawn), 1 to 25%; that for `COC(=O)c1ccc(CN2CC(NC(=O)OC(C)(C)C)CCC2C(F)(F)F)cc1` (stereo not drawn), 25 to 50%.
Take `CC(C)(C)OC(=O)N1CCCN1c1nc(-c2cccs2)nc2ccccc12`: the inhibition at 20 µM was 25 to 50%.
The same measure, in the same setting: the result for `CC(C)(C)NS(=O)(=O)c1ccccc1CNC(=O)CCC1CCCCC1` reads 25 to 50%.
As to `NC(=O)CCN1CCOC(c2nc(-c3ccccc3)cs2)C1` (stereo not drawn), the inhibition at 20 µM lay in the range of 1 to 25%.
Still for that read-out and setting: the result for `CCNC(=O)COc1ccc(CN2CCN(C3CC3)c3ccc(F)cc32)cc1` reads 1 to 25%; that for `CCc1ccccc1OCC(=O)N1N=C(c2ccccc2)CC1(O)C(F)(F)F` (stereo not drawn), 25 to 50%.
Turning to `O=[N+]([O-])c1ccc(O)c2ncccc12`, the inhibition at 20 µM lay in the range of 25 to 50%.
With `COc1ccc2c(c1)C(N(Cc1ccccc1)Cc1nc(CC(C)C)no1)CCO2` (stereo not drawn), the inhibition at 20 µM fell in the range of 25 to 50%.
On the same count and under the same terms, the result for `CCOC(COCCNC(=O)c1ccsc1NC(=O)c1ccc(C(C)C)cc1)OCC` reads 1 to 25%; that for `O=c1c(Cl)cc(C(F)(F)F)cn1Cc1csc(COc2ccc(Cl)cc2)n1`, 1 to 25%.
On the same count and under the same terms, the result for `FC(F)(F)C1CCCN(Cc2ccccc2CN2CCCC(C(F)(F)F)C2)C1` (stereo not drawn) reads 25 to 50%; that for `CCOC(=O)c1ccc2c(c1)n(Cc1occc1C(=O)OC)c(=O)n2CC`, 1 to 25%.
Same read-out and setting: the result for `COc1ccc(-c2csc3nc(C)nc(N(C)Cc4ccco4)c23)cc1OC` reads 25 to 50%.

The test is the same for the next values; noted with them: 20 μM compound; read-out: % Inhibition at 20 μM KRas G12D Q61H.
As for `O=C(Nc1nnc(-c2ccccn2)[nH]1)c1ccncc1`, the inhibition at 20 µM was 25 to 50%.
Still for that read-out and setting: the result for `CN(C)c1ccccc1NCc1cc(Br)c2c(c1)OCCCO2` reads 25 to 50%.
As for `OC(CNc1nc(-c2ccccn2)nc2c1CCC2)COCC1CC1` (stereo not drawn), the inhibition at 20 µM lay within 25 to 50%.
On the same count and under the same terms, the result for `Cc1noc(CNc2cc(C(F)(F)F)ccc2N2CCCC2)n1` reads 25 to 50%; that for `O=C(Nc1nc(-c2cccnc2)cs1)c1ccccn1`, 25 to 50%; that for `O=c1[nH]c(-c2cnc(Oc3ccccc3)cn2)nc2ccsc12`, 1 to 25%.
Still for that read-out and setting: the result for `Cc1ccc(C)c(NC(=O)c2ccccc2OCCOc2ccccc2)c1` reads 25 to 50%; that for `N#Cc1ccccc1N1CCN(C(=O)c2csc3c(O)nc(-c4ccccn4)nc23)CC1` [drawing 2722], 1 to 25%.
`CCN(CCC(=O)OC)c1nc(-c2ccccn2)nc2c1CCC2`: the inhibition at 20 µM is 25 to 50%.
Still for that read-out and setting: the result for `Cc1nc(-c2ccccn2)nc(O)c1CCC(=O)NCc1ccccc1F` reads 25 to 50%; that for `O=c1[nH]c(-c2ncccn2)nc2cc(-c3cccc(Cl)c3)sc12`, 25 to 50%; that for `FC(F)(F)c1cccc(N2CCN(c3ncnc4sccc34)CC2)c1`, 1 to 25%.
`Cc1cccc(Oc2ccc(S(=O)(=O)N3CCCCC3)cc2NCc2cc(C)on2)c1`: the inhibition at 20 µM is 1 to 25%.
Same read-out and setting: the result for `CC(C)N1CC(C(=O)Nc2nnc(-c3ccccn3)[nH]2)CC1=O` (stereo not drawn) reads 25 to 50%; that for `O=C(CCc1ccccn1)Nc1nnc(-c2ccccn2)[nH]1`, 25 to 50%; that for `Cc1cnc(-c2ccccn2)nc1NC(=O)Cc1ccc(C#N)cc1` [drawing 2814], 1 to 25%.
The same measure, in the same setting: the result for `O=C(Nc1nnc(-c2ccccn2)[nH]1)C1CC=CCC1` (stereo not drawn) reads 25 to 50%.
With `O=c1[nH]c(-c2ccccn2)nc2[nH]nnc12`, the inhibition at 20 µM was in the range of 25 to 50%.
Same read-out and setting: the result for `O=c1[nH]c(-c2ccccn2)nc2ccc(F)cc12` reads 25 to 50%.
Same read-out and setting: the result for `O=C(c1csc2c(O)nc(-c3ccccn3)nc12)N1CCOC(c2ccc(Cl)cc2)C1` (stereo not drawn) [drawing 2730] reads 25 to 50%.
Same read-out and setting: the result for `COc1cnc(CNC(=O)Cn2cnc3nc(-c4ccccn4)nc(N4CCOCC4)c32)[nH]c1=O` [drawing 2824] reads 1 to 25%.
Take `Cc1cccc(C(=O)Nc2ccc(OS(=O)(=O)N3CCc4ccccc4C3)cc2)c1`: the inhibition at 20 µM was in the range of 25 to 50%.
On the same count and under the same terms, the result for `Nc1nc(O)c2scc(C(=O)N3CCC(N4CCCC4=O)CC3)c2n1` [drawing 2663] reads 25 to 50%.
On the same count and under the same terms, the result for `COc1ccc(CCNC(=O)c2cc(S(=O)(=O)N3CCOCC3)ccc2OC)cc1OC` reads 1 to 25%.
Same read-out and setting: the result for `Cc1sc(NC2CCCCC2)nc1-c1ccc(F)c(F)c1` reads 25 to 50%; that for `COc1cccc(C2CN(C(=O)c3csc4c(O)nc(-c5ccccn5)nc34)CCO2)c1` (stereo not drawn) [drawing 2729], 25 to 50%; that for `COc1ccc(COCC(=O)Nc2ccnc(-c3ccccn3)n2)cn1` [drawing 2699], 25 to 50%.
As for `COc1ccccc1CN(Cc1cccs1)C(=O)c1ccc(Br)o1`, the inhibition at 20 µM was in the range of 25 to 50%.
Same read-out and setting: the result for `CN(Cc1ccco1)C(=O)c1ccc(COc2ccccc2)o1` reads 1 to 25%; that for `Nc1nc(O)c2scc(C(=O)N3CCc4ccccc4CC3)c2n1` [drawing 2671], 1 to 25%.
The same measure, in the same setting: the result for `CC(=O)Nc1cccc(C(C)N(Cc2ccccc2)Cc2nc(-c3ccc(Cl)cc3)no2)c1` (stereo not drawn) reads 1 to 25%; that for `O=C(NCCc1ccc(O)nc1)c1csc2nc(-c3ccccn3)nc(N3CCOCC3)c12` [drawing 2809], 1 to 25%.
Same read-out and setting: the result for `COc1cccc(OCCn2c(CN3CCOCC3)nc3ccccc32)c1` reads 1 to 25%.
As to `O=C(c1cocn1)N1CCCc2c(O)nc(-c3ccccn3)nc21` [drawing 2649], the inhibition at 20 µM was in the range of 25 to 50%.
Turning to `COc1ccc(OCCSc2nnc(C(C)Oc3ccc(F)cc3)o2)cc1` (stereo not drawn), the inhibition at 20 µM lay within 25 to 50%.
Same read-out and setting: the result for `COCC1CCN(C(=O)c2csc3c(O)nc(N)nc23)CC1` [drawing 2659] reads 1 to 25%; that for `Cc1c(C(=O)Nc2nnc(-c3ccccn3)[nH]2)cnn1-c1ccc(C(F)(F)F)cn1`, 25 to 50%; that for `COc1ccc(CN2CCN(C(=O)c3csc4c(O)nc(-c5ccccn5)nc34)CC2)cc1OC`, 25 to 50%.
On the same count and under the same terms, the result for `Nc1nc(-c2ccccn2)nc2sccc12` [drawing 2821] reads 25 to 50%; that for `CCC1COCCN1c1nc(-c2ccccn2)nc2scc(-c3ccccc3)c12` (stereo not drawn), 25 to 50%.
The same measure, in the same setting: the result for `O=C(c1cc(-c2ccccc2)nc2ccccc12)N1N=CCC1(O)C(F)(F)F` (stereo not drawn) reads 25 to 50%; that for `O=C(CCc1nc2ccccc2s1)Nc1nnc(-c2ccccn2)[nH]1`, 25 to 50%.
On to `O=C(c1cc(-c2ccccc2)on1)N(Cc1ccco1)C1CCCC1`, for which the inhibition at 20 µM lay within 25 to 50%.
On to `CN(C(=O)c1ccc(COc2ccc(Br)cc2)o1)C1CCS(=O)(=O)C1` (stereo not drawn), for which the inhibition at 20 µM fell in the range of 1 to 25%.

The test is the same for the next values; noted with them: 20 μM; read-out: KRas G12D Q61H % Inh.
With `O=C(Cc1ccc(-n2cnnn2)cc1)Nc1nnc(-c2ccccn2)[nH]1` [drawing 2452], the inhibition at 20 µM was 51 to 75%.
Still for that read-out and setting: the result for `O=C(Cn1c(=O)cnc2ccccc21)Nc1nc(-c2ccccn2)cs1` [drawing 2569] reads 51 to 75%; that for `O=C(Nc1nnc(-c2ccccn2)[nH]1)c1ncoc1-c1cccs1` [drawing 2501], 51 to 75%; that for `O=C(Nc1nnc(-c2ccccn2)[nH]1)c1ccc(=O)[nH]n1` [drawing 2562], 51 to 75%.
On the same count and under the same terms, the result for `Cc1ccc(C(=O)Nc2nnc(-c3ccccn3)[nH]2)cc1S(C)(=O)=O` [drawing 2461] reads 51 to 75%; that for `COC(=O)c1cc(NC(=O)CCc2c(C)nc(-c3ccccn3)nc2O)ccc1Cl` [drawing 2600], 51 to 75%.
The same measure, in the same setting: the result for `Cc1nc(-c2ccccn2)nc(O)c1CCC(=O)NC1CCc2ccccc21` (stereo not drawn) [drawing 2597] reads 25 to 50%; that for `O=c1nc(-c2ccccn2)[nH]c2c1sc1ccccc12` [drawing 2592], 51 to 75%.
For the molecule `O=C(Nc1nnc(-c2ccccn2)[nH]1)c1csc(-c2ccoc2)n1`, the inhibition at 20 µM is 76 to 100%.
`COc1cccc(CCC(=O)Nc2nnc(-c3ccccn3)[nH]2)c1` [drawing 2453]: the inhibition at 20 µM is 51 to 75%.
Same read-out and setting: the result for `CS(=O)(=O)c1cccc(C(=O)Nc2nnc(-c3ccccn3)[nH]2)c1` reads 51 to 75%; that for `O=C(Nc1nc(-c2ccccn2)cs1)C1COc2ccccc2O1` (stereo not drawn) [drawing 2566], 51 to 75%; that for `Cc1nc(-c2ccccn2)nc(O)c1CCC(=O)Nc1cccc(OCC(=O)N2CCCC2)c1` [drawing 2601], 25 to 50%.

The same test, now with this note: read-out: KRas G12D Q61H IC50.
In the case of `O=c1nc(-c2ccccn2)[nH]c2c1sc1ccccc12` [drawing 2592], the IC50 lay in the range of 11 to 30 µM.

What is called IC50 is the concentration that gives 50% inhibition.
